ChEMBL document CHEMBL3507680, “University of Dundee, Gates Library screen for HepG2 cell viability”

Experiment: Human HepG2 cell viability assay in 384 well format
Assay type: toxicity, cell-based
Set-up: dose 125 nL, time 70.5 hour; cytotoxicity at 70.5 h: concentration not given beside the values
Details: HepG2 cells, read-out: Inhibition

SMILES	cytotoxicity at 70.5 h [%]
O=C(NCCCN1CCOCC1)c1ccc(Cl)cc1Cl	2.42
Cc1nc([C@@H]2C[C@@H]3CCN(C(=O)Cc4cccs4)C[C@H]3O2)no1	-11.4
CC(C)CNC(=O)[C@H]1C[C@@H]2CN(C(=O)NCCc3ccccc3)C[C@H]1O2	-10.9
CC(C)NC(=O)[C@H]1C[C@@H]2CN(C(=O)NCCc3ccccc3)C[C@H]1O2	8.95
COc1cccc(N2CC3(CCN(C(=O)NC(C)C)C3)CC2=O)c1 (stereo unspecified)	-7.02
CCS(=O)(=O)N1CCc2c(cnc(-c3cccnc3)c2C(=O)O)C1	10.1
O=C(NCC1CC1)[C@H]1C[C@@H]2CN(C(=O)NCc3ccccc3)C[C@H]1O2	11.4
CCOCC1CN(C(=O)Cc2ccccn2)Cc2cn(CC)nc21 (stereo unspecified)	-8.43
Cc1noc([C@H]2C[C@H]3CN(C(=O)Cc4ccsc4)CC[C@H]3O2)n1	-9.17
CCOCC1CN(C(=O)Cc2ccccn2)Cc2cn(C)nc21 (stereo unspecified)	-10.7
O=C(c1cnccn1)N1C[C@@H]2CN(Cc3cccnc3)CCO[C@@H]2C1	18.1
Cn1cccc1C(=O)N1CCc2onc(Cn3cccn3)c2C1	-5.3
c1cnc(N2CCOCC3(CCCN(c4nncs4)C3)C2)cn1 (stereo unspecified)	-3.82
Cc1ccc(-n2cc(CN3CCOCC3)c(-c3cccc(C)c3)n2)cc1	-2.44
O=C(N[C@@H]1C[C@H]2CC[C@@H]1C2)C1(Oc2ccc(Cl)cc2)CCNCC1	-2.25
CC(=O)NCc1nc(CCOc2ccc(Cl)cc2)no1	-4.84
COCC(O)CNC(=O)c1coc(COc2cccc(F)c2)n1 (stereo unspecified)	-4.43
CCCc1nnc(NCCn2nc(C)c(Cl)c2C)o1	-7.4
Cc1cccnc1CN1CCN(C(=O)[C@@]23CNC[C@@H]2CN(C)C3)CC1	-8.36
CN1CCC(N(C)CCC(=O)N2CCC(CCc3ccccc3)CC2)C1 (stereo unspecified)	26.3
NC(=O)[C@@H]1CCCN1C(=O)c1cn(C/C=C/c2ccccc2)nn1	-14
O=c1[nH]c(COc2ccc(Cl)cc2)nc2c1CCNC2	16.3

SMILES	cytotoxicity at 70.5 h [%]
CC[C@H]1CN(C(=O)c2ccc(-n3cnnc3)nc2)CC[C@@]1(C)O	36
CCCOc1ccc2ccccc2c1CN1CC[C@@]2(O)CCNC[C@H]2C1	-4.34
COc1ccc(C(C(=O)O)N2CCC(O)(c3cccnc3)CC2)cc1F (stereo unspecified)	6.42
COCCNC(=O)CCC1CCN(Cc2cccc(SC)c2)CC1	5.26
CN(Cc1nccs1)c1nccc(N2CCN[C@H]3CS(=O)(=O)C[C@H]32)n1	2.95
COc1ccccc1CNC(=O)CN(C)C(C)c1nccs1 (stereo unspecified)	-1.57
CCC[C@@H]1CN(Cc2nnc(-c3cccnc3)o2)C[C@H]1NC(C)=O	-7.21
COCCc1ncc(-c2c(C#N)c(N)nc3c2CCc2[nH]ccc2-3)cn1	-3.18
Cc1nc(O)cc(C2CCN(C(=O)CN(C)c3ccccc3)CC2)n1	-3.24
Cc1ccc(SCCN(C)C(=O)c2cn([C@H]3CC[C@@H](N)CC3)nn2)cc1	16.5
CN(C)S(=O)(=O)N1CC[C@]2(O)CCN(c3nc4ccccc4s3)C[C@@H]2C1	3.99
Cc1nc(N2CCC3(CCCN(C(C)C)C3=O)C2)c2sccc2n1 (stereo unspecified)	-13.4
CCc1ccc(CN2CCN(c3ccc(Cl)nn3)CC2)nc1	-4.56
Cc1ccc(F)cc1S(=O)(=O)N1C[C@@H](C)[C@@](C)(O)C1	14.7
COc1cccc(S(=O)(=O)N2CCCCC2CCN2CCCC2=O)c1 (stereo unspecified)	-7.04
Cc1cc(NCc2nnc3n2CCCCC3)n2nc(C)c(C)c2n1	-5.75
Cc1cnc(C)c(N2CCCC(CO)(Cc3cccc(Cl)c3)C2)n1 (stereo unspecified)	21.2
CCCN1CCc2[nH]cnc2C12CCN(C(=O)Cn1ccnc1C)CC2	-6.5
COc1ccc(CN2C[C@@H](CN(C)CCO)[C@@H](CO)C2)cc1Cl	-7.1
COCCN(C)CCN1CC2(CCN(C3CCOC3)CC2)OC1=O (stereo unspecified)	-0.423
CC(=O)N1CCc2[nH]cnc2C12CCN(C(=O)Cc1ccccn1)CC2	-14.9
O=C(O)C1CC2(CCN(c3nccc4ccccc34)CC2)CN1 (stereo unspecified)	9.49

SMILES	cytotoxicity at 70.5 h [%]
CCC(CO)N(Cc1cccnc1)C(=O)c1ccoc1C (stereo unspecified)	0.679
COCCCN1CCCC(c2nccn2CC2CCC2)C1 (stereo unspecified)	-15
c1ccc(-c2cc(CN3C[C@@H]4CC[C@H](C3)N(CC3CC3)C4)on2)cc1	-6.85
CCCn1c(C)c(CC(=O)N(C)CC(=O)OC)c2c1CC(C)(C)CC2=O	-3.68
CC(C)=CCN1CCN(Cc2cccc(C)n2)CC1CCO (stereo unspecified)	6.26
CCc1[nH]c2ccc(CNc3cncc(C(=O)N(C)C)n3)cc2c1C	-0.482
CSc1ccc(CN(C(=O)c2cc[nH]n2)C2CC2)cc1	-7.21
CCn1cc(CN2CCCC2c2nc(-c3ccccc3)no2)cc1C#N (stereo unspecified)	2.37
COCCN1C(=O)[C@H]2CC[C@@H]1CN(S(=O)(=O)c1cccc(Cl)c1)C2	17.8
N[C@H]1c2ccccc2C[C@@H]1NC(=O)C1CCN(Cc2ccco2)CC1	-11.4
O=C(C1NCCc2[nH]cnc21)N1CCC2(C=Cc3ccccc32)CC1 (stereo unspecified)	-7.07
c1cncc(-c2noc(CNc3ncnc4c3CCNCC4)n2)c1	-5.95
Cc1ccc(C(=O)NCC2CCN(Cc3ccccc3C#N)C2)cn1 (stereo unspecified)	-5.59
CCc1ccc(CN2CCN(Cc3ncc[nH]3)[C@H]3CS(=O)(=O)C[C@H]32)nc1	-6.57
c1ccc(-c2cnn3cc(CN4CCC5(CCO5)CC4)cnc23)cc1	1.13
Cc1nc[nH]c1CN1CCCN(c2nc3ccccc3s2)CC1	-2.7
Cc1ccc(C)c2c(O)cc(CN3CCC(=O)NCC3C)nc12 (stereo unspecified)	-8.42
CCc1cc(N2CCC(n3cc(C(=O)NC4CC4)nn3)CC2)ncn1	12.5
CCC(c1nc(C(C)C)nn1-c1ccccn1)n1cccn1 (stereo unspecified)	17.2
Cc1nn(C)c(C)c1CN(C)C(=O)C1COc2ccccc2C1 (stereo unspecified)	-3.84
NC(=O)c1ccnc(N2CCCC(CO)(Cc3ccc(F)cc3)C2)c1 (stereo unspecified)	-6.25
CC(=O)Nc1ccc(-c2ccccc2NC(=O)CN)cc1	28.6

SMILES	cytotoxicity at 70.5 h [%]
N#Cc1cccc(NC2CC(=O)N(CCCc3ccccc3)C2)n1 (stereo unspecified)	-19.4
CC1=CC[C@@H]2CN(C(=O)c3ccc(-c4nnn(C)n4)cc3)C[C@@H]2C1	6
CC(C)c1ccccc1NC(=O)N1C[C@@H]2CC[C@H](C1)N(C)C2=O	27.2
Cc1nc[nH]c1C(=O)N1CCC2(CN(C)C(=O)O2)C1 (stereo unspecified)	-7.68
O=c1n(CC2CC2)nc(C2CCNCC2)n1Cc1ccccc1	9.69
Cc1oncc1C(=O)N1CCC(O)(CN2CCOCC2)C(C)(C)C1 (stereo unspecified)	-2.15
CC(=O)N[C@@H]1CN(C(=O)c2cc(C)oc2C)C[C@H]1c1ccc(C)o1	23.3
Cc1cccc(C)c1OC1CN(C(=O)C2CC(=O)N(C(C)(C)C)C2)C1 (stereo unspecified)	18.1
Cc1ccc([C@@H]2CN(C(=O)c3ccccc3C)C[C@H]2N(C)C)cc1	2.46
Cc1noc(C)c1CN1C(=O)[C@H]2CC[C@@H]1CN(Cc1ncc[nH]1)C2	-0.471
CCN(CC)S(=O)(=O)NC1CCCc2nc(-c3ccccc3)ncc21 (stereo unspecified)	-7.72
CCN(C)C[C@@H]1CN(C(=O)NC2CCCCC2)C[C@@H]1CO	-10.1
CC1(C(=O)NCc2cccnc2Oc2ccc(F)c(F)c2)CCCNC1 (stereo unspecified)	8.1
CCCc1cc(CN(C)C2CC(C)(C)NC(C)(C)C2)n[nH]1	-4.42
Cc1[nH]c2ccc(C#N)cc2c1CCNc1ncnc2c1CCNCC2	-1.54
CCCn1nc(C)c(CNC(=O)C2COc3ccc(OC)cc3C2)c1C (stereo unspecified)	-2.92
CN(C)c1cnn(Cc2nc3ccccc3n2C)c(=O)c1	-12.8
CC(=O)c1cc(CC(=O)NCc2ccsc2)cs1	-1.03
O=C(CCc1cc2n(n1)CCN(Cc1ccncc1)C2)N1CCCC1	18.6
CN(C)c1ccc(-c2cc(C(=O)O)cc(S(=O)(=O)NC3CC3)c2)cc1	-12.9
COCC(=O)N1CCCN(c2ncnc3c2CCNCC3)CC1	-5.03
Cc1n[nH]c(C)c1CNc1ccc(-c2nc(C3CC3)no2)cn1	-0.0598

SMILES	cytotoxicity at 70.5 h [%]
CN(C)CCCn1ccnc1C1CCN(C(=O)Cc2cccnc2)CC1	9.19
COCc1noc(CCNc2nc(CC3CC3)nc3c2CCNCC3)n1	8.9
Cc1cc2cccc(NC(=O)N3CC[C@@H]4CC[C@H](C3)N4C)c2o1	-5.41
CCS(=O)(=O)N1CCC(c2nccn2Cc2ccncc2)CC1	-1.9
c1cc2c(cc1-c1noc3c1CN(C1CCSCC1)CC3)OCO2	12.6
Oc1cccc(-c2cc(C3CCN(Cc4cncnc4)C3)ccn2)c1 (stereo unspecified)	-3.45
Cc1nn(C)cc1CN1CCCn2nc(CNC(=O)C3CCC3)cc2C1	-3.2
CCCN1CCCC2(CCN(S(=O)(=O)c3cccnc3)C2)C1=O (stereo unspecified)	2.74
COc1cccc(-c2n[nH]c3c2CN(C(=O)C2=C(C)OCCO2)CC3)c1	-4.06
CCOCC1CC2(CCN(C(=O)c3ccc4ccccc4n3)CC2)CO1 (stereo unspecified)	-13.3
O=C(c1ccccn1)N1CCC2(CC1)COC(COCC1CC1)C2 (stereo unspecified)	-8.98
CC(C)CCN1C[C@H]2C[C@H](C(=O)NCc3ccccc3)[C@@H](C1)O2	5.49
CN(C)CCO[C@H]1CN(C(=O)c2cccs2)[C@@H]2COC[C@H]12	20.9
Cn1cccc1C(=O)N1CCC2(CC1)COC(COc1ccccn1)C2 (stereo unspecified)	-6.63
C1CN(CC2CC2)C(COCC2CC2)c2nnn(CC3CC3)c21 (stereo unspecified)	-12.9
Cn1cc(CN2CCCC23CCN(C(=O)c2ccsc2)CC3)cn1	-5.87
Cn1cc(CN2CCCC23CCN(C(=O)c2ccccc2)CC3)cn1	-11.9
Cn1nnc2c1C(COCC1CC1)CN(Cc1ccoc1)C2 (stereo unspecified)	-9.19
